Test results taken from patent publication US20100075965A1, “PI3 KINASE INHIBITORS AND METHODS OF THEIR USE” (Novartis AG, priority 2006, published 2010).

Key:
[1] = target: T1, human PI3Kγ (GST-p110γ) (Homo sapiens, UniProt P48736); experiment: PI3K scintillation proximity kinase assay, gamma isoform; type: biochemical; conditions: PI3 kinase isoform gamma
T1 construct: Residues 38-1102 of human PI3Kγ are subcloned into the BamH1 and EcoR1 sites of the transfer vector pAcG2T; made in house; host or cells: Sf9 (Spodoptera frugiperda) insect cells, baculovirus
Method: (§1) Activity of compounds in Table 4, expressed as Ki the dissociation constant for inhibition binding, were determined using the following test procedures.
(§2) Baculovirus expressing different fragments of PI3Kγ fused to GST have been previously described by Stoyanova, S., Bulgarelli-Leva, G., Kirsch, C., Hanck, T., Klinger, R., Wetzker, R., Wymann, M. P. (1997) Lipid- and protein kinase activities of G protein-coupled PI 3-kinase gamma: structure-activity analysis and interactions with wortmannin. Biochem. J., 324:489. Residues 38-1102 of human PI3Kγ are subcloned into the BamH1 and EcoR1 sites of the transfer vector pAcG2T (Pharmingen) to create a GST-P13Kγ lacking the first 37 residues of PI3Kγ. To express the recombinant protein, Sf9 (Spodoptera frugiperda 9) insect cells are routinely maintained at densities between 3×10^5 and 3×10^6 cells/ml in serum containing TNMFH medium (Sigma). Sf9 cells, at a density of 2×10^6 are infected with human GST-PI3γΔ34 baculovirus at a multiplicity of infection (m.o.i.) of 1 for 72 hours. The infected cells are harvested by centrifugation at 1400 g for 4 minutes at 4° C. and the cell pellets are frozen at −80° C. Both Sf9 and Sf21 cells work equally well. […] Cell lysate (supernatant) is added (usually as 50 ml lysate to 1 ml GST resin in 50 ml tubes) and gently rotated on a mixer at 4° C. for 2-3 hours. The unbound flow through sample is collected by centrifugation at 1000 g for 5 minutes at 4° C. using a DENLEY™ centrifuge. The 1 ml GST resin containing bound material is transferred to a 15 ml FALCON™ centrifuge tube for subsequent washing and elution steps. Firstly a series of 3 cycles of washings (mixing by gentle inversion) is performed with 15 ml ice cold wash Buffer A (50 mM Tris-HCl pH 7.5, 1% Triton X-100, 2 mM DTT) interspersed with centrifugation at 1000 g for 5 minutes at 4° C. A final single wash step is performed with 15 ml ice cold wash Buffer B (50 mM Tris-HCl pH 7.5, 2 mM DTT) and then centrifuged at 1000 g for 5 minutes at 4° C. The washed GST resin is finally eluted with 4 cycles of 1 ml ice cold elution buffer (50 mM Tris-HCl pH 7.5, 10 mM reduced glutathione, 2 mM DTT, 150 mM NaCl, 1 mM NaF, 50% ethylene glycol and protease inhibitors) interspersed with centrifugation at 1000 g for 5 minutes at 4° C. Samples are aliquoted and stored at −20° C. The isoforms in Table 4 were similarly purified.
(§3) An in vitro kinase assay was established that measures the transfer of the terminal phosphate of adenosine triphosphate to phosphatidylinositol. The kinase reaction is performed in a white 96 well microtitre plate as a Scintillation Proximity Assay. […] The plate is incubated at room temperature for 60 minutes and the reaction terminated by the adding 150 μl of WGA-bead stop solution (40 mM Tris, 200 mM NaCl, 2 mM EGTA, 1.3 mM ethylene diamine tetraacetic acid (EDTA), 2.6 μM ATP and 0.5 mg of Wheat Germ Agglutinin-SPA beads (Amersham Biosciences) to each well. The plate is sealed, incubated at room temperature for 60 minutes, centrifuged at 1200 rpm and then counted for 1 minute using a scintillation counter. Total activity is determined by adding 10 μl of 5% dimethylsulphoxide (DMSO) and non-specific activity is determined by adding 10 μl 50 mM EDTA in place of the test compound.

[2] = target: T2, PI3 kinase isoform delta (Homo sapiens, UniProt O00329); experiment: PI3K scintillation proximity kinase assay, delta isoform; type: biochemical
T2 construct: made in house
T2 sequence (O00329 1-1044): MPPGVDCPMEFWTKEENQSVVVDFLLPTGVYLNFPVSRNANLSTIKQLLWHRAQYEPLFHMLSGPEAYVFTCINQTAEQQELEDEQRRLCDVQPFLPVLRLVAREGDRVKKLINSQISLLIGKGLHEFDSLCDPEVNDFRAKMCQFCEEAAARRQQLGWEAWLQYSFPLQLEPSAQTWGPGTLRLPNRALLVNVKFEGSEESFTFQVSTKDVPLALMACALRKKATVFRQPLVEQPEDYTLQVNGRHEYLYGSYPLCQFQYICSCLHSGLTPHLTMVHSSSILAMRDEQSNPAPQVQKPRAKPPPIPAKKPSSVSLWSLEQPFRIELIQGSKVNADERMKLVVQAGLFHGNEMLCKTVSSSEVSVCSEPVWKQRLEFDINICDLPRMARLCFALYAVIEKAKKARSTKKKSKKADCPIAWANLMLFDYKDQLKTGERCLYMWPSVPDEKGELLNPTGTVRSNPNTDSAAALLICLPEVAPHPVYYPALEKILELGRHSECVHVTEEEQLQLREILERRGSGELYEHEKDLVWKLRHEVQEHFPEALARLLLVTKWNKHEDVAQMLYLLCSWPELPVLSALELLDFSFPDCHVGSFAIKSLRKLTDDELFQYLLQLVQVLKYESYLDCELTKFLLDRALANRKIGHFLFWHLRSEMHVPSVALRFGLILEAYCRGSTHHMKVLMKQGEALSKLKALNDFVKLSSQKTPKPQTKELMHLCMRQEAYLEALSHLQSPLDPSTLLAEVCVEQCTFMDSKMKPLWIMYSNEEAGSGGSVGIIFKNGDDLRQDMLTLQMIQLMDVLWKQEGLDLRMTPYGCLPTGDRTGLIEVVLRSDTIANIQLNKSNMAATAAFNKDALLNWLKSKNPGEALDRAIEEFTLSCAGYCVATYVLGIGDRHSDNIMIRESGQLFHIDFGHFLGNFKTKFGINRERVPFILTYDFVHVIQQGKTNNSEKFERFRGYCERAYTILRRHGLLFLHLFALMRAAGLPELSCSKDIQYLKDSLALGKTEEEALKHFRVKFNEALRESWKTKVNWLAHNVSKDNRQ
Method: as §1, §2, §3

[3] = target: T3, PI3 kinase isoform alpha (Homo sapiens, UniProt P42336); experiment: PI3K scintillation proximity kinase assay, alpha isoform; type: biochemical
T3 construct: made in house
Method: as §1, §2, §3

[4] = target: T4, PI3 kinase isoform beta (Homo sapiens, UniProt P42338); experiment: PI3K scintillation proximity kinase assay, beta isoform; type: biochemical
T4 construct: made in house
Method: as §1, §2, §3

[5] = test system: subcutaneous A2780 ovarian xenograft tumors; experiment: A2780 human ovarian xenograft model in nude mice; type: in vivo; conditions: 30 mg/kg daily p.o., day 6, p<0.001 vs vehicle (ANOVA)
Method: Female nude mice (6-8 weeks of age; Charles River) were implanted subcutaneously with A2780 (5×10^6 cells/mouse in 0.1 ml HBSS) cells into the right flank. […] Tumor volumes were measured (SE is the standard error of the mean).
Tumors from mice treated with vehicle were also harvested as controls.

[6] = test system: pSer473-Akt in A2780 cells; experiment: pSer473 Akt assay to monitor PI3K pathway in A2780 cells (MSD); type: cell-based; conditions: Homo sapiens; A2780 cells; read-out: A2780 pAKT 473 EC50
Summary of the method: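 A2780 cells (15,000/well, adhered overnight) treated 1 h at 37 °C with compound, then lysed; pSer473-Akt and total Akt measured by MSD electrochemiluminescence. The pSer473/total Akt ratio gave percent inhibition versus DMSO, from which EC50 was derived.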

T4 sequence (P42338 whole entry, canonical isoform): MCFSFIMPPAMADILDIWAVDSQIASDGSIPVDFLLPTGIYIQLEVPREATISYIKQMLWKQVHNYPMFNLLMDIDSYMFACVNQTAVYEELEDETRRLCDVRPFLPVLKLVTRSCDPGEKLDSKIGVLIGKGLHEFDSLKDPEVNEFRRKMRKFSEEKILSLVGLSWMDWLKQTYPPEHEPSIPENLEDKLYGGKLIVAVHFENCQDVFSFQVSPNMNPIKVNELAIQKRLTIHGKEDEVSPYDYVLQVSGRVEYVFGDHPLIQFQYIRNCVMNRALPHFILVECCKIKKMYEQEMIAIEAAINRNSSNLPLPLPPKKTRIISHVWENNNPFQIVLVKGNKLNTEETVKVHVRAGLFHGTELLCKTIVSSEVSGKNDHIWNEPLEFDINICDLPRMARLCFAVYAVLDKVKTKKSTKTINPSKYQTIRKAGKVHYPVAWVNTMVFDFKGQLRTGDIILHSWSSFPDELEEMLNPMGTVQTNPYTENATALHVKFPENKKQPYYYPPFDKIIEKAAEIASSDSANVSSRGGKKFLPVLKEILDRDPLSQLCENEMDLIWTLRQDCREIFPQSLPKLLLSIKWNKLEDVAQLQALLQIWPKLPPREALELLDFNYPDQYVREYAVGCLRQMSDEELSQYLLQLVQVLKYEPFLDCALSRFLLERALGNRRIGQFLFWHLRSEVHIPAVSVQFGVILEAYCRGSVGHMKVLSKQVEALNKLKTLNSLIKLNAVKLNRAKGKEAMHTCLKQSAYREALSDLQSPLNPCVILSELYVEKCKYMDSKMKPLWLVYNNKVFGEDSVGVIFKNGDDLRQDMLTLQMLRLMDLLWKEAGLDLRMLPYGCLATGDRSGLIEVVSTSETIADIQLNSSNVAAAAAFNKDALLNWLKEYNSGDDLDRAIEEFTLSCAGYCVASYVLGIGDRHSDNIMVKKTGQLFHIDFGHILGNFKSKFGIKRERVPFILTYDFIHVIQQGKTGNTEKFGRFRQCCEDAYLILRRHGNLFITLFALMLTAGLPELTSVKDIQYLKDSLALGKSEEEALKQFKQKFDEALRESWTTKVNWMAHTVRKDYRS
T1 sequence (P48736 38-1102): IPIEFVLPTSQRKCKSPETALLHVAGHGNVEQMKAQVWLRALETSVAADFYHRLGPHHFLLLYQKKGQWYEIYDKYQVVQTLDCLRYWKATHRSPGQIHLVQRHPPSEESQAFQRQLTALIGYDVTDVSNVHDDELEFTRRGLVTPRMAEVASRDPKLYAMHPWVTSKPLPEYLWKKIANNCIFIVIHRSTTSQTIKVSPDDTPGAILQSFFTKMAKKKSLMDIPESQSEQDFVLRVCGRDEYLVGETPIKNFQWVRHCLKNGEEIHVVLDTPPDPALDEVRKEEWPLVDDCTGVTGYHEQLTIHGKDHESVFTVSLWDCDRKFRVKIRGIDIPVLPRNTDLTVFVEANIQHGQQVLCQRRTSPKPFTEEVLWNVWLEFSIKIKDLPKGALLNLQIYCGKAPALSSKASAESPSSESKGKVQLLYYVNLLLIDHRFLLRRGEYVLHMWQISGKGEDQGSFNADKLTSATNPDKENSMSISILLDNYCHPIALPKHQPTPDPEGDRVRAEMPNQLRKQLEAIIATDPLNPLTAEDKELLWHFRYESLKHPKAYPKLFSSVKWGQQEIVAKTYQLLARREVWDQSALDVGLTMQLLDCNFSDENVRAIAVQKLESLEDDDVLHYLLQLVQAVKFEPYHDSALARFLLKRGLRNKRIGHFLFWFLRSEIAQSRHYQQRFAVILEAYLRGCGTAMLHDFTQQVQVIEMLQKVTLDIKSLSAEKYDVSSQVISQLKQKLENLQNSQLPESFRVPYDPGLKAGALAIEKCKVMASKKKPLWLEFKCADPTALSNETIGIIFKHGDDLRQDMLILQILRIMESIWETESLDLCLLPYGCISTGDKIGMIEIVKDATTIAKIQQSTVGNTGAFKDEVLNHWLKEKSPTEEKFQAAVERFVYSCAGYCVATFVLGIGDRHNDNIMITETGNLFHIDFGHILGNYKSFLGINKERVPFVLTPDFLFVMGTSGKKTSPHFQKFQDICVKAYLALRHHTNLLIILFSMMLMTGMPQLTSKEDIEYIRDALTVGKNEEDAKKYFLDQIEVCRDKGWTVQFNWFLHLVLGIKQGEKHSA
T3 sequence (P42336 whole entry, canonical isoform): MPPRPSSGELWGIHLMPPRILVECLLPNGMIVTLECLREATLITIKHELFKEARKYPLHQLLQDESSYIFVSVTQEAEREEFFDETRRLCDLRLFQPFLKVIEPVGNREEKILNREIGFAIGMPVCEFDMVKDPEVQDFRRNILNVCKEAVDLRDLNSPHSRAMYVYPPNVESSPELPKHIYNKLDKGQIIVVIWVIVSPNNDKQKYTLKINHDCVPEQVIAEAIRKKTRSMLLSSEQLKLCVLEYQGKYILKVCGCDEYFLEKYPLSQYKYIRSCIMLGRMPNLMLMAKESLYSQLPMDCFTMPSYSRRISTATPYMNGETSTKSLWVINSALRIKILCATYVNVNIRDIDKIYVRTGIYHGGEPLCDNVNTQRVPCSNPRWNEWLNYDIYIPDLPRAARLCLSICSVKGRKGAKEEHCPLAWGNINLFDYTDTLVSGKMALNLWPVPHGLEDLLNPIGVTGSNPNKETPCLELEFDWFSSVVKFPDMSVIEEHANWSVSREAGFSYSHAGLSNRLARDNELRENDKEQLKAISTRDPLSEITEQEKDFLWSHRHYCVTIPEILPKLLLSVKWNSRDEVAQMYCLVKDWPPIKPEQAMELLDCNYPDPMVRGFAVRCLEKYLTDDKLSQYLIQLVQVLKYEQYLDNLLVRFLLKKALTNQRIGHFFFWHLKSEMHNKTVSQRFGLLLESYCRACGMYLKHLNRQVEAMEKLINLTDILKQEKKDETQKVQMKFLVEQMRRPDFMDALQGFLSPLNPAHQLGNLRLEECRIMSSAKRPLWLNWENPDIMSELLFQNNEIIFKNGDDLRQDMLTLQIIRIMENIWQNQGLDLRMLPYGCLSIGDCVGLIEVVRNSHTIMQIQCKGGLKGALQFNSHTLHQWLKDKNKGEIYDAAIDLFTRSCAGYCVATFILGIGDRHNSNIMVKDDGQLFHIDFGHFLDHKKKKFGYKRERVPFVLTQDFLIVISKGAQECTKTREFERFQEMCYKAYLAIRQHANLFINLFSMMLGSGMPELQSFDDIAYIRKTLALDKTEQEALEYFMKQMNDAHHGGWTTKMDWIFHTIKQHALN

Ki [1] | Ki [2] | Ki [3] | Ki [4] | EC50 [6] | Compound | tumor growth inhibition [5]
< 1000 nM | < 1000 nM | < 1000 nM | < 1000 nM |  | CCn1nnc(CCNC(=O)Nc2cn3cc(-c4cnc(N)c(C(F)(F)F)c4)ccc3n2)n1 [Example 3-1, 1-[6-(6-Amino-5-trifluoromethyl-pyridin-3-yl)-imidazo[1,2-a]pyridin-2-yl]-3-[2-(2-ethyl-2H-tetrazol-5-yl)-ethyl]-urea] | 
< 1000 nM | < 1000 nM | < 1000 nM | < 1000 nM |  | CC(C)n1nnc(CCNC(=O)Nc2cn3cc(-c4cnc(N)c(C(F)(F)F)c4)ccc3n2)n1 [Example 3-2, 1-[6-(6-Amino-5-trifluoromethyl-py-ridin-3-yl)-imidazo[1,2-a]pyridin-2-yl]-3-[2-(2-isopropyl-2H-tetrazol-5-yl)-ethyl]-urea] | 
< 1000 nM | < 1000 nM | < 10000 nM | < 1000 nM |  | CC(C)n1nnc(CCNC(=O)Nc2cn3cc(-c4ccc(N)nc4)ccc3n2)n1 [Example 3-3, 1-[6-(6-Amino-pyridin-3-yl)-imidazo[1,2-a]pyridin-2-yl]-3-[2-(2-isopropyl-2H-tetrazol-5-yl)-ethyl]-urea] | 
< 1000 nM | < 1000 nM | < 1000 nM | < 1000 nM |  | CCc1nnn(CCNC(=O)Nc2cn3cc(-c4cnc(N)c(C(F)(F)F)c4)ccc3n2)n1 [Example 3-4, 1-[6-(6-Amino-5-trifluoromethyl-py-ridin-3-yl)-imidazo[1,2-a]pyridin-2-yl]-3-[2-(5-ethyl-tetrazol-2-yl)-ethyl]-urea] | 
< 1000 nM | < 1000 nM | < 1000 nM | < 1000 nM |  | Nc1ncc(-c2ccc3nc(NC(=O)NCCn4nnc(C5CC5)n4)cn3c2)cc1C(F)(F)F [Example 3-5, 1-[6-(6-Amino-5-trifluoromethyl-py-ridin-3-yl)-imidazo[1,2-a]pyridin-2-yl]-3-[2-(5-cyclopropyl-tetrazol-2-yl)-ethyl]-urea] | 
 |  |  |  | < 1000 nM | CC(=O)Nc1cn2cc(-c3cnc(N)c(OC(C)C(F)(F)F)n3)ccc2n1 (stereo not shown) [Example 57, N-(6-(5-amino-6-(1,1,1-trifluoropropan-2-yloxy)pyrazin-2-yl)imidazo[1,2-a]pyridin-2-yl)acetamide] | 79%
